Each block holds one compound with its values, some of them ahead of it. The source made the active and inactive calls. No cut-off for these calls is given here.
Experiments:
[1] = target: DNA (cytosine-5)-methyltransferase 1 (Homo sapiens) (UniProt P26358); assay: Inhibition of C1226 catalytic site of DNMT1
[2] = target: Orphan methyltransferase M.SssI (Spiroplasma monobiae, UniProt P15840); assay: (§1) Inhibition of Spiroplasma sp. MQ-1 M.SssI
[3] = target: Orphan methyltransferase M.SssI (Spiroplasma monobiae) (UniProt P15840); assay: as §1
MV4-11 [4] = assay: Induction of global DNA hypomethylation in human MV411 cells at 1 uM after 72 hrs by LC-MS/MS analysis relative to control; format: functional, cell-based
MV4-11 [5] = assay: Decrease in global DNA methylation in human MV411 cells at 3 uM after 72 hrs by LC-MS/MS analysis relative to control; format: functional; set-up: scale not given: the % may be the effect or the level left
MV4-11 [6] = assay: Decrease in global DNA methylation in human MV411 cells at 30 uM after 72 hrs by LC-MS/MS analysis relative to control; format: functional; set-up: scale not given: the % may be the effect or the level left
[7] = target: DNA (cytosine-5)-methyltransferase 1 (Homo sapiens) (UniProt P26358); assay: Inhibition of C1226 catalytic site of DNMT1 in presence of S-adenosyl methionine
[8] = target: Orphan methyltransferase M.SssI (Spiroplasma monobiae) (UniProt P15840); assay: Inhibition of Spiroplasma sp. MQ-1 M.SssI up to 100 uM

Sequence of DNA (cytosine-5)-methyltransferase 1 (Homo sapiens) (P26358 whole entry): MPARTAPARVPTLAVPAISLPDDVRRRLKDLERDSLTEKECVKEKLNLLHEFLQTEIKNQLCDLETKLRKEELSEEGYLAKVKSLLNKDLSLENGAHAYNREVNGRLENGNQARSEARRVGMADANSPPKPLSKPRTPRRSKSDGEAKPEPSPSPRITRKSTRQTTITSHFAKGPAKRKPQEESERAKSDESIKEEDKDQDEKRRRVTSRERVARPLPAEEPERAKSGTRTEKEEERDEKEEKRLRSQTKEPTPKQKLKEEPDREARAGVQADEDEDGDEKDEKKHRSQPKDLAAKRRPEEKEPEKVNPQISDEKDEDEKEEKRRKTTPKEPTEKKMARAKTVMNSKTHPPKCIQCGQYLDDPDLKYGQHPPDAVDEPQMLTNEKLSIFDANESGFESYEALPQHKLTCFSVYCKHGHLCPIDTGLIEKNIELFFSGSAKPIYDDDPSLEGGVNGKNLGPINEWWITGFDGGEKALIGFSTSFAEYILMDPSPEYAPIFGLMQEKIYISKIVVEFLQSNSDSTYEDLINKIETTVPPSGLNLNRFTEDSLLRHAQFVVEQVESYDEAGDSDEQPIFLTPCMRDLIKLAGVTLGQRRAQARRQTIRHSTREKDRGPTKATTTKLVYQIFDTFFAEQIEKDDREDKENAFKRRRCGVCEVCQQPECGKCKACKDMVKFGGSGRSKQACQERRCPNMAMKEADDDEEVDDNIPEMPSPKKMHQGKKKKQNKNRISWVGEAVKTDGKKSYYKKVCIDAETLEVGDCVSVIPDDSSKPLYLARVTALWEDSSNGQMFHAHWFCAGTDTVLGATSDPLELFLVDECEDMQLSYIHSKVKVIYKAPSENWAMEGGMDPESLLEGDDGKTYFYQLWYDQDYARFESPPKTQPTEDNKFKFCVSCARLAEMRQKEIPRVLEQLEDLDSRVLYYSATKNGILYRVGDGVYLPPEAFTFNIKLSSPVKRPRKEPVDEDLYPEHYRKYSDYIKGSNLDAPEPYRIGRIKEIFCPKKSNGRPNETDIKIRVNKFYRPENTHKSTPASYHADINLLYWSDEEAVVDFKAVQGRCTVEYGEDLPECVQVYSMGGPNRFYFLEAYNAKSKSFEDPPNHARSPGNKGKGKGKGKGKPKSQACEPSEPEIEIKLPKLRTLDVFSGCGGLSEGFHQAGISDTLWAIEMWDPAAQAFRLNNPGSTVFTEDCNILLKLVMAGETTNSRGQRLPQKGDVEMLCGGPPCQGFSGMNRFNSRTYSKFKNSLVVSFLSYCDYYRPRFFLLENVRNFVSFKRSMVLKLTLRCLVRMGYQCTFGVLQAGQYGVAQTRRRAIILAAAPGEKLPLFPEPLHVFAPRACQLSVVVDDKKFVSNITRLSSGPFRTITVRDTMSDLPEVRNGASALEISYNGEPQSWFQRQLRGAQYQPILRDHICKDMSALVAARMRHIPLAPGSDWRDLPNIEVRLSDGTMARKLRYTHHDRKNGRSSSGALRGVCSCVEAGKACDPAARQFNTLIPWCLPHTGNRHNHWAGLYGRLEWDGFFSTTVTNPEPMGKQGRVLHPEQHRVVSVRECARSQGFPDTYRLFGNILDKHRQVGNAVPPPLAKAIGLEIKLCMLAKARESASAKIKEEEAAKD
Sequence of Orphan methyltransferase M.SssI (P15840 whole entry): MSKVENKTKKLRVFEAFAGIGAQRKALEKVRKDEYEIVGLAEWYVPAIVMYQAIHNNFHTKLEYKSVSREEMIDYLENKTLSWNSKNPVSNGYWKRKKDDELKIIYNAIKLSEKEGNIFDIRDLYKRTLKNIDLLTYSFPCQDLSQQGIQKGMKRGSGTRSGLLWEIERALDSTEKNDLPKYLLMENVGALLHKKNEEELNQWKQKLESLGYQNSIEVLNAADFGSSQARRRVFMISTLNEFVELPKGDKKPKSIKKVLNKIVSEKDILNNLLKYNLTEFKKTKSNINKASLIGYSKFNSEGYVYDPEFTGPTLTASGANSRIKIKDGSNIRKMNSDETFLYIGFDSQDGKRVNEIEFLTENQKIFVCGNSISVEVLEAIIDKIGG
Sequence of Orphan methyltransferase M.SssI (Spiroplasma monobiae) (P15840 whole entry): as above

Structure (SMILES): COc1cc(CCC(=O)CC(O)CCc2ccc(O)c(OC)c2)ccc1O (centres undefined)
Activity [1]: Active
Activity [7]: Active
Activity [8]: inactive

Structure (SMILES): COc1cc(CCC(=O)CC(=O)CCc2ccc(O)c(OC)c2)ccc1O
Activity [1]: Active
Activity [7]: Active

The next lines start with results.

Activity [1]: Active
IC50 [2]: 30 nM
Structure (SMILES): O=C(/C=C/c1ccc(O)cc1)CC(=O)/C=C/c1ccc(O)cc1 [BISDEMETHOXYCURCUMIN]

Activity [1]: Active
IC50 [2]: 30 nM
Structure (SMILES): COc1cc(/C=C/C(O)=C/C(=O)/C=C/c2ccc(O)cc2)ccc1O [DEMETHOXYCURCUMIN]

Activity [1]: Active
Activity [3]: Dose-dependent effect
Structure (SMILES): COc1cc(/C=C/C(=O)CC(=O)/C=C/c2ccc(O)c(OC)c2)ccc1O [CURCUMIN]
Activity (MV4-11 [4]): inactive
Activity (MV4-11 [5]): 15%
Activity (MV4-11 [6]): 15%
